In publication PMC5947850 (ACS infectious diseases, 2017):
Where “and” joins values, the source holds several entries; their conditions need not be identical. Identical values can stand only once. Like-named read-outs stand apart in the source and are kept apart here. Marks after values point to notes of the source that are not given here.

Columns and labels:
Human cytochrome bc1 [1] = target: T1, Human cytochrome bc1 (Homo sapiens, UniProt P00156); assay: Human cytochrome bc1 inhibition; assay type: biochemical; settings: read-out: Human cytochrome bc1 EC50
[2] = target: T2, P. falciparum cytochrome bc1 (Plasmodium falciparum, UniProt Q02768); settings: read-out: P. falciparum cytochrome bc1 EC50, cited from earlier work
T2 sequence (Q02768 1-376): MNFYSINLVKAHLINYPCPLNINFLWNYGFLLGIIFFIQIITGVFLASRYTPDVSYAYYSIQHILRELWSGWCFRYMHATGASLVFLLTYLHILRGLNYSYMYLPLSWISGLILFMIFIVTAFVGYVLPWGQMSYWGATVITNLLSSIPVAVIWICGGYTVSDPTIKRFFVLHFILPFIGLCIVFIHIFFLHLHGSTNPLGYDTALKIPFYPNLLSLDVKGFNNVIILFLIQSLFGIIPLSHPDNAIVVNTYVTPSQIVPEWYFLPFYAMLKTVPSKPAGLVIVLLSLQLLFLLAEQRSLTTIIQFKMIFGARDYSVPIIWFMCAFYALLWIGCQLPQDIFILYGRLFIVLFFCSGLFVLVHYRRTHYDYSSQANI

[3] = system: P. falciparum Dd2 (chloroquine resistant); assay: 72 h SYBR Green I assay, P. falciparum Dd2; assay type: cell-based; settings: Plasmodium falciparum, DD2, 72 h, read-out: In vitro activity vs. P. falciparum IC50, Dd2
P. yoelii = assay: Single dose cure of patent infection in mice; assay type: in vivo; settings: dose required to clear patent infection without recrudescence for 30 days post-infection, PEG-400
[4] = system: P. falciparum Tm90-C2B (Chloroquine and Atovaquone resistant); assay: 72 h SYBR Green I assay, P. falciparum Tm90-C2B; assay type: cell-based; settings: Plasmodium falciparum, TM90, 72 h, read-out: In vitro activity vs. P. falciparum IC50, C2B
[5] = system: blood-stage Plasmodium yoelii; assay: Modified 4-day suppression test in mice; assay type: in vivo; settings: 4-day Peters Test
[6] = system: P. falciparum D6 (drug sensitive); assay: 72 h SYBR Green I assay, P. falciparum D6; assay type: cell-based; settings: Plasmodium falciparum, D6, 72 h, read-out: In vitro activity vs. P. falciparum IC50, D6
[7] = system: luciferase-transfected P. berghei sporozoites; assay type: in vivo, C57BL/6 albino mice; settings: 24 hours prior to sporozoite inoculation
[8] = system: luciferase-transfected P. berghei sporozoites; settings: dosed 1 hour prior to sporozoite inoculation; cited from earlier work
HepG2 cells = assay: Mitochondrial toxicity, CellTiter-Glo ATP in galactose medium; assay type: cell-based, human; settings: 72 hour incubation
Human cytochrome bc1 [9] = target: T1, Human cytochrome bc1; settings: read-out: Human cytochrome bc1 EC50; ref Nilsen, et al. 14; cited from earlier work
in vitro = in vitro ADME; settings: human, plasma

CCOC(=O)Oc1c(-c2ccc(Oc3ccc(OC(F)(F)F)cc3)cc2)c(C)nc2cc(OC)c(Cl)cc12 [ELQ-337]
EC50 (Human cytochrome bc1 [1]): > 10000 nM | EC50 ([2]; ref Miley, et al. 26): 10000 nM

CCN(CC)CCCC(C)Nc1ccnc2cc(Cl)ccc12 (stereo not drawn) [CQ, chloroquine]
IC50 [3]: 140 nM | In vivo efficacy (oral) P. yoelii Single Dose Cure (P. yoelii): >64 mg/kg/day | IC50 [4]: 98 nM | In vivo efficacy (oral) P. yoelii NRD (non-recrudescence dose) [5]: >64 mg/kg/day | IC50 [6]: 10 nM

COc1cc2[nH]c(C)c(-c3ccc(Oc4ccc(OC(F)(F)F)cc4)cc3)c(=O)c2cc1Cl [ELQ-300]
Mice with positive IVIS signal at 24 hours ([7]; 0.1 mg/kg oral): 2/5 | Mice with positive IVIS signal at 48 hours ([7]; 0.1 mg/kg oral): 5/5 | Mice with no parasitemia ([7]; 1 mg/kg oral): 4/5 | Mice with no parasitemia ([7]; 3 mg/kg oral): 5/5 | Parasite burden in the liver (IVIS) ([7]; 3 and 1 mg/kg oral): no detectable parasite burden in the liver | In vivo efficacy (oral) P. yoelii Single Dose Cure (P. yoelii): >20 ^e mg/kg/day | Fully protective dose against liver stage infection [8]: ≤ 0.03 mg/kg | In vivo efficacy (oral) P. yoelii NRD (non-recrudescence dose) [5]: 1 mg/kg/day and 1.0 mg/kg/day | Highest concentration without inhibition or alteration of ATP production (HepG2 cells): ≥ 25 µM | EC50 ([2]; ref Nilsen, et al. 14): 0.56 nM | EC50 (Human cytochrome bc1 [9]): > 10000 nM

CCOC(=O)OC(C)Oc1c(-c2ccc(Oc3ccc(OC(F)(F)F)cc3)cc2)c(C)nc2cc(OC)c(Cl)cc12 (stereo not drawn) [ELQ-387]
In vivo efficacy (oral) P. yoelii Single Dose Cure (P. yoelii): 5.0 mg/kg/day

COc1cc2nc(C)c(-c3ccc(Oc4ccc(OC(F)(F)F)cc4)cc3)c(OCOC(=O)OC(C)C)c2cc1Cl [ELQ-330]
In vivo efficacy (oral) P. yoelii Single Dose Cure (P. yoelii): 5.0 mg/kg/day

CC(C)[N+](C)(CCOC(=O)C1c2ccccc2Oc2ccccc21)C(C)C [Propantheline bromide]
half-life at 1 μM (in vitro): 37.5 min
